Like-named read-outs stand apart in the source and are kept apart here.
How the values were obtained:
HepG2 cells [1] = experiment: Electron-microscopic examination of PLsis induction potential (myelin-like structure)
Description: Using 30 kinds of the following commercially available drugs as test compounds, the level of PLsis induction potential was examined with the emergence of an intracellular myelin-like structure or a structure having a high electron density, which is an early image thereof, as an index by electronmicroscopic observation.
HepG2 cells (purchased from ATCC) were exposed to the test compound by a conventional method. HepG2 cells used were of the cell growth phase. The attached HepG2 cells were washed twice with. Dulbecco's phosphate buffered saline (calcium and magnesium salt free; PBS(−))(Dainippon Pharmaceutical Co., Ltd.) containing 0.05 w/v % EDTA, detached with a cell dissociation solution of 0.25 vol % trypsin-1 mmol/L EDTA (Gibco BRL) diluted 2-fold with PBS(−), centrifuged to remove the supernatant, and adjusted to a concentration of 2×10^5 cells/250 μL with a culture medium [Dulbecco's modified Eagle medium (DMEM)(Gibco BRL) supplemented with 50 U/mL penicillin (Gibco BRL)-[…] streptomycin (Gibco BRL) and 5 vol % FBS (Bio whittaker)]. DMSO alone or a culture medium containing the above-mentioned test compound in DMSO solution was dispensed to a well by 250 μL, the above-mentioned cell suspension (250 μL) was added, and cultured in a CO2 incubator (7100; Napco) under an atmosphere of 5% CO2—95% air at 37° C.
After culture for 72 hr, the culture medium was removed, and the cells were fixed with 1 w/v % glutaraldehyde solution. After fixing with 2 w/v % osmic acid for 2 hr by a conventional method and dehydrating with an alcohol series, the cells were embedded in a resin (Quetol 812). Ultrathin slices were prepared and, after electron staining, observed with an electron microscope (H-300; Hitachi) and photographed in 3 or more pictures per each sample (magnification ×5000). The processing after post-fixation was performed by Applied Medical Research.

HepG2 cells [2] = experiment: Highest concentration at which cells were viable after 72 hr exposure; type: cell-based, human
asah1 = experiment: Real-time quantitative PCR of PLsis marker gene expression; type: cell-based, human; details: HepG2 cells, 24 hr exposure, relative value, control group = 1.0, GAPDH internal standard, n=3
Experimental: (§1) Using RNeasy Mini Kit (QIAGEN), total RNA was purified from the cells, and cDNA was synthesized in a 100 μL system using TaqMan Reverse Transcription Reagents (PE Applied Biosystems).
(§2) As the primer for glyceraldehyde-3-phosphoric acid dehydrogenase (GAPDH) and VIC labeled probe, those attached to TaqMan GAPDH Control Reagents (PE Applied Biosystems) were used.
(§3) Using 100 μL of the reaction mixture containing 5 μL of cDNA (1×TaqMan Universal PCR Master Mix (PE Applied Biosystems), 200 nM forward primer, 200 nM reverse primer and 200 nM TaqMan probe), 40 cycles of (1 cycle=95° C., 15 sec; 60° C., 1 min) PCR were performed. PCR and fluorescence detection were performed using ABI PRISM Sequence Detector 7000 (PE Applied Biosystems). As the internal standard, GAPDH was used to amend the measurement values. For the determination of significant difference, t-test was used (n=3).
(§4) For each test compound, the expression variation rate of 12 genes each relative to the control group was determined.

depp = experiment: as above; type: cell-based, human; details: HepG2 cells, 24 hr exposure, relative value, control group = 1.0, GAPDH internal standard, n=3
Experimental: as §1, §2, §3, §4

fabp1 = experiment: as above; type: cell-based, human; details: HepG2 cells, 24 hr exposure, relative value, control group = 1.0, GAPDH internal standard, n=3
Experimental: as §1, §2, §3, §4

flj22362 = experiment: as above; type: cell-based, human; details: HepG2 cells, 24 hr exposure, relative value, control group = 1.0, GAPDH internal standard, n=3
Experimental: as §1, §2, §3, §4

hpn = experiment: as above; type: cell-based, human; details: HepG2 cells, 24 hr exposure, relative value, control group = 1.0, GAPDH internal standard, n=3
Experimental: as §1, §2, §3, §4

kiaa1001 = experiment: as above; type: cell-based, human; details: HepG2 cells, 24 hr exposure, relative value, control group = 1.0, GAPDH internal standard, n=3
Experimental: as §1, §2, §3, §4

lss = experiment: as above; type: cell-based, human; details: HepG2 cells, 24 hr exposure, relative value, control group = 1.0, GAPDH internal standard, n=3
Experimental: as §1, §2, §3, §4

mgc4171 = experiment: as above; type: cell-based, human; details: HepG2 cells, 24 hr exposure, relative value, control group = 1.0, GAPDH internal standard, n=3
Experimental: as §1, §2, §3, §4

nr0b2 = experiment: as above; type: cell-based, human; details: HepG2 cells, 24 hr exposure, relative value, control group = 1.0, GAPDH internal standard, n=3
Experimental: as §1, §2, §3, §4

serpina3 = experiment: as above; type: cell-based, human; details: HepG2 cells, 24 hr exposure, relative value, control group = 1.0, GAPDH internal standard, n=3
Experimental: as §1, §2, §3, §4

slc2a3 = experiment: as above; type: cell-based, human; details: HepG2 cells, 24 hr exposure, relative value, control group = 1.0, GAPDH internal standard, n=3
Experimental: as §1, §2, §3, §4

tagln = experiment: as above; type: cell-based, human; details: HepG2 cells, 24 hr exposure, relative value, control group = 1.0, GAPDH internal standard, n=3
Experimental: as §1, §2, §3, §4

frequency of appearance of myelin-like structure (HepG2 cells [1])	expression variation rate asah1 (asah1)	expression variation rate depp (depp)	expression variation rate fabp1 (fabp1)	expression variation rate flj22362 (flj22362)	expression variation rate hpn (hpn)	expression variation rate kiaa1001 (kiaa1001)	expression variation rate lss (lss)	expression variation rate mgc4171 (mgc4171)	expression variation rate nr0b2 (nr0b2)	expression variation rate serpina3 (serpina3)	expression variation rate slc2a3 (slc2a3)	expression variation rate tagln (tagln)	frequency of appearance of myelin-like structure (HepG2 cells [1]; HepG2 cells, 72 hr culture, electron microscopy, blind test n=4, addition concentration 8.3 or 25 μmol/L)	frequency of appearance of myelin-like structure (HepG2 cells [1]; HepG2 cells, 72 hr, electromicroscopic test, class symbols in head of Table 2)	Compound	addition concentration (highest concentration at which cells survived after 72 hr of culture) (HepG2 cells [2]) [µmol/L]
++	1.29	2.95	2.56	1.70	1.70	1.90	1.99	1.74	1.20	1.94	0.43	0.65			CN(C)CCCN1c2ccccc2Sc2ccc(Cl)cc21 [chlorpromazine]	8.3
+++	6.55	3.08	2.80	2.15	2.39	1.93	3.51	1.34	2.70	1.73	0.09	0.20			CNCCC(Oc1ccc(C(F)(F)F)cc1)c1ccccc1 (stereo not drawn) [fluoxetine]	8.3
−	1.39	0.80	0.98	0.85	0.79	0.84	0.88	0.72	0.63	0.78	1.53	0.80			CC(C)NCC(O)c1ccc(NS(C)(=O)=O)cc1 (stereo not drawn) [sotalol]	25
+	1.36	2.02	5.07	1.57	2.85	5.79	2.03	1.32	0.77	2.46	0.38	0.46			CSc1ccc2c(c1)N(CCC1CCCCN1C)c1ccccc1S2 (stereo not drawn) [thioridazine]	8.3
++		5.15	3.89	1.92	2.35	3.34		1.88	1.97	1.96	0.24	0.24			CN1CCN(C2=Nc3cc(Cl)ccc3Nc3ccccc32)CC1 [clozapine]	25
−	1.43		1.38								0.37	0.63			C=C[C@H]1C[N@@]2CC[C@H]1C[C@@H]2[C@@H](O)c1ccnc2ccc(OC)cc12 [quinidine]	25
	4.52	3.36	2.45	1.80	2.32	2.11	2.69	1.81	3.41	2.12	0.15	0.15			CN(C)CCCN1c2ccccc2CCc2ccccc21 [imipramine]	25

The next lines start with the compound.

Compound	frequency of appearance of myelin-like structure (HepG2 cells [1])	expression variation rate asah1 (asah1)	expression variation rate depp (depp)	expression variation rate fabp1 (fabp1)	expression variation rate flj22362 (flj22362)	expression variation rate hpn (hpn)	expression variation rate kiaa1001 (kiaa1001)	expression variation rate lss (lss)	expression variation rate mgc4171 (mgc4171)	expression variation rate nr0b2 (nr0b2)	expression variation rate serpina3 (serpina3)	expression variation rate slc2a3 (slc2a3)	expression variation rate tagln (tagln)	frequency of appearance of myelin-like structure (HepG2 cells [1]; HepG2 cells, 72 hr culture, electron microscopy, blind test n=4, addition concentration 8.3 or 25 μmol/L)	frequency of appearance of myelin-like structure (HepG2 cells [1]; HepG2 cells, 72 hr, electromicroscopic test, class symbols in head of Table 2)	addition concentration (highest concentration at which cells survived after 72 hr of culture) (HepG2 cells [2]) [µmol/L]
Clc1ccccc1CNCC1CCC(CNCc2ccccc2Cl)CC1 (stereo not drawn) [AY-9944]	++	4.71	3.32	3.16	1.45	2.68	1.68	4.78	1.63	2.71	1.97	0.22	0.21			8.3
C1CCC(C(CC2CCCCN2)C2CCCCC2)CC1 (stereo not drawn) [perhexiline]	++	3.12	2.55	2.49	3.42	2.22	1.98	3.10	1.93	2.09	2.50	0.22	0.26			8.3
N=C(N)c1ccc(OCCCCCOc2ccc(C(=N)N)cc2)cc1 [pentamidine]		0.93	2.88	0.15	2.49	2.50	1.82	0.52	0.73	1.83	2.12	0.50	0.68			8.3
CC(=O)Nc1ccc(O)cc1 [acetaminophen]		1.18	0.94	1.11	1.02	1.10	1.13	0.91	0.75	0.69	0.99	1.50	0.93			25
CCOC(=O)N1CCC(=C2c3ccc(Cl)cc3CCc3cccnc32)CC1 [loratadine]														mild	+	8.3

— US20070218460A1, “Method of Estimating Toxicity of Drug” (TAKEDA PHARMACEUTICAL COMPANY LIMITED, priority 2003, published 2007)
